Columns and labels:
Rattus norvegicus [1] = assay: Downregulation of OPN expression in 1% ethylene glycol-treated Rattus norvegicus Sprague-Dawley (rat) kidney at 0.8 mg/day, po after 14 days by ELISA (reference value: 75 +/- 13.5 %); type: functional
Rattus norvegicus [2] = assay: Downregulation of OPN expression in 1% ethylene glycol-treated Rattus norvegicus Sprague-Dawley (rat) kidney at 2 mg/day, po after 14 days by ELISA (reference value: 75 +/- 13.5 %); type: functional
Rattus norvegicus [3] = assay: Downregulation of OPN expression in 1% ethylene glycol-treated Rattus norvegicus Sprague-Dawley (rat) kidney at 3 mg/day, po after 14 days by ELISA (reference value: 75 +/- 13.5 %); type: functional
Rattus norvegicus [4] = assay: Downregulation of OPN expression in 1% ethylene glycol-treated Rattus norvegicus Sprague-Dawley (rat) kidney at 4 mg/day, po after 14 days by ELISA (reference value: 75 +/- 13.5 %); type: functional
Rattus norvegicus [5] = species: Rattus norvegicus; assay: Renoprotective activity in Rattus norvegicus Sprague-Dawley (rat) kidney assessed as decrease in oxalate excretion in urine at 4 mg/day after 14 days in presence of water (reference value: 1.11 +/- 0.06 uM); type: functional
Rattus norvegicus [6] = species: Rattus norvegicus; assay: Renoprotective activity in 1% ethylene glycol-treated Rattus norvegicus Sprague-Dawley (rat) kidney assessed as decrease in oxalate excretion in urine at 0.4 mg/day after 14 days (reference value: 4.07 +/- 0.05 uM); type: functional
Rattus norvegicus [7] = species: Rattus norvegicus; assay: Renoprotective activity in 1% ethylene glycol-treated Rattus norvegicus Sprague-Dawley (rat) kidney assessed as decrease in oxalate excretion in urine at 0.8 mg/day after 14 days (reference value: 4.07 +/- 0.05 uM); type: functional
Rattus norvegicus [8] = species: Rattus norvegicus; assay: Renoprotective activity in 1% ethylene glycol-treated Rattus norvegicus Sprague-Dawley (rat) kidney assessed as decrease in oxalate excretion in urine at 2 mg/day after 14 days (reference value: 4.07 +/- 0.05 uM); type: functional
Rattus norvegicus [9] = species: Rattus norvegicus; assay: Renoprotective activity in 1% ethylene glycol-treated Rattus norvegicus Sprague-Dawley (rat) kidney assessed as decrease in oxalate excretion in urine at 3 mg/day after 14 days (reference value: 4.07 +/- 0.05 uM); type: functional
Rattus norvegicus [10] = species: Rattus norvegicus; assay: Renoprotective activity in 1% ethylene glycol-treated Rattus norvegicus Sprague-Dawley (rat) kidney assessed as decrease in oxalate excretion in urine at 4 mg/day after 14 days (reference value: 4.07 +/- 0.05 uM); type: functional
Rattus norvegicus [11] = assay: Downregulation of OPN expression in 1% ethylene glycol-treated po dosed Rattus norvegicus Sprague-Dawley (rat) kidney at 0.4 mg/day, po after 14 days by ELISA; type: functional, organism-based
Rattus norvegicus [12] = assay: Downregulation of OPN expression in Rattus norvegicus Sprague-Dawley (rat) kidney at 0.4 mg/day, po after 14 days by ELISA in presence of water (reference value: 10 +/- 3 %); type: functional
Rattus norvegicus [13] = assay: Downregulation of OPN expression in 1% ethylene glycol-treated Rattus norvegicus Sprague-Dawley (rat) kidney at 0.4 mg/day, po after 14 days by ELISA (reference value: 75 +/- 13.5 %); type: functional

SMILES: CC1=CC(=O)c2ccccc2C1=O [MENADIONE]
- Activity (Rattus norvegicus [1]): 55%
- Activity (Rattus norvegicus [2]): 35%
- Activity (Rattus norvegicus [3]): 30%
- Activity (Rattus norvegicus [4]): 20%
- Activity (Rattus norvegicus [5]): 1.02 µM
- Activity (Rattus norvegicus [6]): 3.44 µM
- Activity (Rattus norvegicus [7]): 3.04 µM
- Activity (Rattus norvegicus [8]): 2.55 µM
- Activity (Rattus norvegicus [9]): 2.01 µM
- Activity (Rattus norvegicus [10]): 1.49 µM
- Activity (Rattus norvegicus [11]): Dose-dependent effect
- Activity (Rattus norvegicus [12]): 11%
- Activity (Rattus norvegicus [13]): 70%

From ChEMBL document CHEMBL3046064, “Expression of OPN in rat kidney with different doses of vitamin K3 injection” (2007)
